Reference: patent US20240115527A1, “CXCR1/CXCR2 INHIBITORS FOR USE IN TREATING MYELOFIBROSIS” (Icahn School of Medicine at Mount Sinai, priority 2020, published 2024)

Experiments:
MF CD34+ cells = assay: Clonal assays of MF CD34+ cells; JAK2V617F allele status of picked hematopoietic colonies; assay type: cell-based, human
Procedure: Individual hematopoietic colonies were randomly picked from clonal assays of CD34^+ cells from 6 MF cases and the JAK2V617F allele status was determined.
IL-8 alone increased the absolute numbers of JAK2V617F+ colonies, and the addition of Ladarixin reduced the numbers of JAK2V617F positive colonies stimulated by IL-8 (Tables 1-3).

[1] = test system: co-cultures of MF MNC and stromal cells; assay: ELISA of IL-8 and VEGF in conditioned medium of co-cultures of MF MNC and splenic stromal cells; assay type: cell-based, human
Description: FIGS. 6A, 6B, 6C, 6D, and 6E illustrate that a CXCR1/CXCR2 inhibitor reverses effects of IL-8 on micro-environmental cells. […] N splenic AC=normal splenic adherent cells. nBM MNC=non-adherent bone marrow mononuclear cells. MNC=mononuclear cells. […] FIGS. 6D and 6E illustrate that addition of CXCR1/CXCR2 inhibitor Ladx decreased the levels of IL-8 (FIG. 6D) and VEGF (FIG. 6E) in conditioned medium harvested from co-cultures of MF MNC and stromal cells.

[2] = MF4 CD34+ cells, ladarixin 10 μM + IL-8 10 ng
[3] = MF4 CD34+ cells, ladarixin 10 μM + IL-8 20 ng
[4] = MF4 CD34+ cells, ladarixin 10 μM + IL-8 50 ng
[5] = MF4 CD34+ cells, ladarixin 10 μM + IL-8 100 ng
[6] = MF4 CD34+ cells, ladarixin 10 μM, no IL-8
[7] = MF4 CD34+ cells, ladarixin 20 μM + IL-8 20 ng
[8] = MF4 CD34+ cells, ladarixin 20 μM, no IL-8
[9] = MF5 CD34+ cells, ladarixin 10 μM + IL-8 10 ng
[10] = MF5 CD34+ cells, ladarixin 10 μM + IL-8 20 ng
[11] = MF5 CD34+ cells, ladarixin 10 μM + IL-8 50 ng
[12] = MF5 CD34+ cells, ladarixin 10 μM + IL-8 100 ng
[13] = MF5 CD34+ cells, ladarixin 10 μM, no IL-8
[14] = MF5 CD34+ cells, ladarixin 20 μM + IL-8 20 ng
[15] = MF5 CD34+ cells, ladarixin 20 μM, no IL-8
[16] = MF6 CD34+ cells, ladarixin 10 μM + IL-8 10 ng
[17] = MF6 CD34+ cells, ladarixin 10 μM + IL-8 20 ng
[18] = MF6 CD34+ cells, ladarixin 10 μM + IL-8 50 ng
[19] = MF6 CD34+ cells, ladarixin 10 μM + IL-8 100 ng
[20] = MF6 CD34+ cells, ladarixin 10 μM, no IL-8
[21] = MF6 CD34+ cells, ladarixin 20 μM + IL-8 20 ng
[22] = MF6 CD34+ cells, ladarixin 20 μM, no IL-8

C[C@@H](C(=O)NS(C)(=O)=O)c1ccc(OS(=O)(=O)C(F)(F)F)cc1 [Ladarixin, R(-)-2-[(4′-trifluoromethanesulfonyloxy)phenyl]-N-methanesulfonyl propionamide]
number of colonies, Homo (JAK2V617F homozygous) (MF CD34+ cells; [2]): 0
number of colonies, Wild (JAK2 wild type) (MF CD34+ cells; [2]): 0
number of colonies, Heter (JAK2V617F heterozygous) (MF CD34+ cells; [3]): 113
number of colonies, Homo (JAK2V617F homozygous) (MF CD34+ cells; [3]): 0
number of colonies, Wild (JAK2 wild type) (MF CD34+ cells; [3]): 0
number of colonies, Heter (JAK2V617F heterozygous) (MF CD34+ cells; [4]): 137
number of colonies, Homo (JAK2V617F homozygous) (MF CD34+ cells; [4]): 0
number of colonies, Wild (JAK2 wild type) (MF CD34+ cells; [4]): 0
number of colonies, Heter (JAK2V617F heterozygous) (MF CD34+ cells; [5]): 112
number of colonies, Homo (JAK2V617F homozygous) (MF CD34+ cells; [5]): 7
number of colonies, Wild (JAK2 wild type) (MF CD34+ cells; [5]): 0
number of colonies, Heter (JAK2V617F heterozygous) (MF CD34+ cells; [6]): 163
number of colonies, Homo (JAK2V617F homozygous) (MF CD34+ cells; [6]): 23
number of colonies, Wild (JAK2 wild type) (MF CD34+ cells; [6]): 0
number of colonies, Heter (JAK2V617F heterozygous) (MF CD34+ cells; [7]): 134
number of colonies, Homo (JAK2V617F homozygous) (MF CD34+ cells; [7]): 0
number of colonies, Wild (JAK2 wild type) (MF CD34+ cells; [7]): 0
number of colonies, Heter (JAK2V617F heterozygous) (MF CD34+ cells; [8]): 142
number of colonies, Homo (JAK2V617F homozygous) (MF CD34+ cells; [8]): 0
number of colonies, Wild (JAK2 wild type) (MF CD34+ cells; [8]): 0
number of colonies, Heter (JAK2V617F heterozygous) (MF CD34+ cells; [9]): 0
number of colonies, Homo (JAK2V617F homozygous) (MF CD34+ cells; [9]): 0
number of colonies, Wild (JAK2 wild type) (MF CD34+ cells; [9]): 148
number of colonies, Heter (JAK2V617F heterozygous) (MF CD34+ cells; [10]): 0
number of colonies, Homo (JAK2V617F homozygous) (MF CD34+ cells; [10]): 0
number of colonies, Wild (JAK2 wild type) (MF CD34+ cells; [10]): 138
number of colonies, Heter (JAK2V617F heterozygous) (MF CD34+ cells; [11]): 0
number of colonies, Homo (JAK2V617F homozygous) (MF CD34+ cells; [11]): 0
number of colonies, Wild (JAK2 wild type) (MF CD34+ cells; [11]): 151
number of colonies, Heter (JAK2V617F heterozygous) (MF CD34+ cells; [12]): 0
number of colonies, Homo (JAK2V617F homozygous) (MF CD34+ cells; [12]): 0
number of colonies, Wild (JAK2 wild type) (MF CD34+ cells; [12]): 144
number of colonies, Heter (JAK2V617F heterozygous) (MF CD34+ cells; [13]): 0
number of colonies, Homo (JAK2V617F homozygous) (MF CD34+ cells; [13]): 0
number of colonies, Wild (JAK2 wild type) (MF CD34+ cells; [13]): 107
number of colonies, Heter (JAK2V617F heterozygous) (MF CD34+ cells; [14]): 0
number of colonies, Homo (JAK2V617F homozygous) (MF CD34+ cells; [14]): 0
number of colonies, Wild (JAK2 wild type) (MF CD34+ cells; [14]): 131
number of colonies, Heter (JAK2V617F heterozygous) (MF CD34+ cells; [15]): 0
number of colonies, Homo (JAK2V617F homozygous) (MF CD34+ cells; [15]): 0
number of colonies, Wild (JAK2 wild type) (MF CD34+ cells; [15]): 141
number of colonies, Heter (JAK2V617F heterozygous) (MF CD34+ cells; [16]): 0
number of colonies, Homo (JAK2V617F homozygous) (MF CD34+ cells; [16]): 0
number of colonies, Wild (JAK2 wild type) (MF CD34+ cells; [16]): 119
number of colonies, Heter (JAK2V617F heterozygous) (MF CD34+ cells; [17]): 0
number of colonies, Homo (JAK2V617F homozygous) (MF CD34+ cells; [17]): 0
number of colonies, Wild (JAK2 wild type) (MF CD34+ cells; [17]): 121
number of colonies, Heter (JAK2V617F heterozygous) (MF CD34+ cells; [18]): 0
number of colonies, Homo (JAK2V617F homozygous) (MF CD34+ cells; [18]): 0
number of colonies, Wild (JAK2 wild type) (MF CD34+ cells; [18]): 122
number of colonies, Heter (JAK2V617F heterozygous) (MF CD34+ cells; [19]): 0
number of colonies, Homo (JAK2V617F homozygous) (MF CD34+ cells; [19]): 0
number of colonies, Wild (JAK2 wild type) (MF CD34+ cells; [19]): 119
number of colonies, Heter (JAK2V617F heterozygous) (MF CD34+ cells; [20]): 0
number of colonies, Homo (JAK2V617F homozygous) (MF CD34+ cells; [20]): 0
number of colonies, Wild (JAK2 wild type) (MF CD34+ cells; [20]): 119
number of colonies, Heter (JAK2V617F heterozygous) (MF CD34+ cells; [21]): 0
number of colonies, Homo (JAK2V617F homozygous) (MF CD34+ cells; [21]): 0
number of colonies, Wild (JAK2 wild type) (MF CD34+ cells; [21]): 106
number of colonies, Heter (JAK2V617F heterozygous) (MF CD34+ cells; [22]): 0
number of colonies, Homo (JAK2V617F homozygous) (MF CD34+ cells; [22]): 0
number of colonies, Wild (JAK2 wild type) (MF CD34+ cells; [22]): 105
numbers of JAK2V617F positive colonies stimulated by IL-8 (MF CD34+ cells; addition of Ladarixin, 6 MF cases): reduced
IL-8 levels in co-cultures (conditioned medium) ([1]; FIG. 6D): decreased
VEGF levels in co-cultures (conditioned medium) ([1]; FIG. 6E): decreased
